The subject of this experiment is BDF1 mice, colon carcinoma 38 sc, T/C %. The experiment can be described thus: NCI In Vivo Anticancer Drug Screen. Data for tumor model Colon Carcinoma 38 (subcutaneous) in B6D2F1 (BDF1) mice. The following applies: endpoint: median tumor weight (est.), higher = larger tumour. Summed up: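 Mice with transplanted tumors are treated with compound or vehicle. Survival or tumor size is then measured in both groups. The ratio of treated to control gives the reported figure.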

The mark [1] stands for this setting: dose: 12.5 mg/kg/injection, schedule: Q07DX002 (ip), vehicle: saline.
Setting [2] is: dose: 25.0 mg/kg/injection, schedule: Q07DX002 (ip), vehicle: saline.
Setting [3] is: dose: 25.0 mg/kg/injection, schedule: Q07DX003 (ip), vehicle: saline.
Where [4] appears, read: dose: 50.0 mg/kg/injection, schedule: Q07DX003 (ip), vehicle: saline.
Where [5] appears, read: dose: 100.0 mg/kg/injection, schedule: Q07DX002 (ip), vehicle: saline.
Setting [6] is: dose: 50.0 mg/kg/injection, schedule: Q07DX002 (ip), vehicle: saline with Tween-80.
Setting [7] is: dose: 200.0 mg/kg/injection, schedule: Q07DX002 (ip), vehicle: saline with Tween-80.
Where [8] appears, read: dose: 50.0 mg/kg/injection, schedule: Q07DX002 (ip), vehicle: Klucel (hydroxypropylcellulose) (HPC).
[9] abbreviates: dose: 200.0 mg/kg/injection, schedule: Q07DX002 (ip), vehicle: Klucel (hydroxypropylcellulose) (HPC).
Setting [10] is: dose: 400.0 mg/kg/injection, schedule: Q07DX002 (ip), vehicle: Klucel (hydroxypropylcellulose) (HPC).

10 compounds from PubChem BioAssay AID212 (DTP/NCI, 2004) can be followed below.

Several values for one entry are separate records, joined by “and”; a condition that tells them apart may be missing. Equal entries are not always repeated. Inconclusive results are not listed.

In the case of `Nc1ncnc2c1ncn2C1OC(CO)C(O)C1O` (configuration not stated), the T/C reads like this: under setting [1], 103 % of control; under setting [2], 115 % of control; under setting [3], 233 % of control; (dose: 50.0 mg/kg/injection, schedule: Q07DX002 (ip), vehicle: saline) 85 % of control; under setting [4], 238 % of control; (dose: 75.0 mg/kg/injection, schedule: Q07DX002 (ip), vehicle: saline) 80 % of control. For the same compound, the T/C is 110 % of control under setting [5]; 97 % of control (dose: 150.0 mg/kg/injection, schedule: Q07DX002 (ip), vehicle: saline); 105 % of control (dose: 300.0 mg/kg/injection, schedule: Q07DX002 (ip), vehicle: saline); 116 % of control (dose: 600.0 mg/kg/injection, schedule: Q07DX002 (ip), vehicle: saline).
`CC(=O)OCC12CCC(C)=CC1OC1C(OS(C)(=O)=O)C(=O)C2(C)C12CO2` (configuration not stated): the T/C reads like this: (dose: 0.25 mg/kg/injection, schedule: Q07DX002 (ip), vehicle: saline) 189 % of control; (dose: 5.0 mg/kg/injection, schedule: Q07DX002 (ip), vehicle: saline) 98 % of control; (dose: 10.0 mg/kg/injection, schedule: Q07DX002 (ip), vehicle: saline) 88 % of control.
On to `Cc1cn(C2CC(O)C(CO)O2)c(=O)[nH]c1=O` (configuration not stated), for which the T/C runs as follows: under setting [3], 54 % of control and 79 % of control; (dose: 50.0 mg/kg/injection, schedule: Q03HX024 (ip), vehicle: saline) 95 % of control; under setting [4], 76 % of control; (dose: 100.0 mg/kg/injection, schedule: Q03HX024 (ip), vehicle: saline) 98 % of control; (dose: 200.0 mg/kg/injection, schedule: Q03HX024 (ip), vehicle: saline) 66 % of control; (dose: 200.0 mg/kg/injection, schedule: Q07DX003 (ip), vehicle: saline) 90 % of control. In addition, the T/C by setting is: (dose: 400.0 mg/kg/injection, schedule: Q03HX024 (ip), vehicle: saline) 122 % of control; (dose: 400.0 mg/kg/injection, schedule: Q07DX003 (ip), vehicle: saline) 89 % of control and 101 % of control.
Consider `C=C1C(C2(C)C(OC(C)=O)CC(=O)OC(C)(COC(C)=O)C2CC(=O)OC)C(OC=O)C(OC(=O)C(O)C(C)CC)C2(C)C(c3ccoc3)CC(=O)C12O` (configuration not stated), for which the T/C was 64 % of control (dose: 3.0 mg/kg/injection, schedule: Q07DX002 (ip), vehicle: Klucel (hydroxypropylcellulose) (HPC)); 68 % of control (dose: 6.0 mg/kg/injection, schedule: Q07DX002 (ip), vehicle: Klucel (hydroxypropylcellulose) (HPC)); 77 % of control (dose: 12.0 mg/kg/injection, schedule: Q07DX002 (ip), vehicle: Klucel (hydroxypropylcellulose) (HPC)); 90 % of control (dose: 24.0 mg/kg/injection, schedule: Q07DX002 (ip), vehicle: Klucel (hydroxypropylcellulose) (HPC)); 61 % of control (dose: 48.0 mg/kg/injection, schedule: Q07DX002 (ip), vehicle: Klucel (hydroxypropylcellulose) (HPC)).
Regarding `CC(=O)Oc1ccc[nH]c1=O`, the T/C is, setting by setting: (dose: 25.0 mg/kg/injection, schedule: Q07DX002 (ip), vehicle: saline with Tween-80) 102 % of control; (dose: 25.0 mg/kg/injection, schedule: Q07DX003 (ip), vehicle: saline with Tween-80) 101 % of control; under setting [6], 77 % of control; (dose: 50.0 mg/kg/injection, schedule: Q07DX003 (ip), vehicle: saline with Tween-80) 70 % of control; (dose: 100.0 mg/kg/injection, schedule: Q07DX002 (ip), vehicle: saline with Tween-80) 108 % of control and 92 % of control; (dose: 100.0 mg/kg/injection, schedule: Q07DX003 (ip), vehicle: saline with Tween-80) 49 % of control. Further, the T/C runs as follows: under setting [7], 114 % of control; (dose: 200.0 mg/kg/injection, schedule: Q07DX003 (ip), vehicle: saline with Tween-80) 114 % of control; (dose: 400.0 mg/kg/injection, schedule: Q07DX003 (ip), vehicle: saline with Tween-80) 83 % of control; (dose: 800.0 mg/kg/injection, schedule: Q07DX002 (ip), vehicle: saline with Tween-80) 74 % of control and 75 % of control; (dose: 800.0 mg/kg/injection, schedule: Q07DX003 (ip), vehicle: saline with Tween-80) 57 % of control.
Take `COc1cc([C@@H]2c3cc4c(c(O)c3C[C@H]3COC(=O)[C@@H]32)OCO4)cc(OC)c1OC`: the T/C (dose: 1.0 mg/kg/injection, schedule: Q07DX002 (ip), vehicle: saline) is 81 % of control; the T/C (dose: 2.0 mg/kg/injection, schedule: Q07DX002 (ip), vehicle: saline) was 67 % of control; the T/C (dose: 4.0 mg/kg/injection, schedule: Q07DX002 (ip), vehicle: saline) was 76 % of control; the T/C (dose: 8.0 mg/kg/injection, schedule: Q07DX002 (ip), vehicle: saline) is 73 % of control; the T/C (dose: 16.0 mg/kg/injection, schedule: Q07DX002 (ip), vehicle: saline) is 70 % of control.
On to `CC1=C(C)C(=O)O[C@@H]([C@](C)(O)[C@]2(O)CC[C@@]3(O)[C@@H]4C[C@H]5O[C@]56CC=CC(=O)[C@]6(C)[C@H]4CC[C@]23C)C1`, for which the T/C was 110 % of control under setting [1]; 96 % of control under setting [2]; 162 % of control (dose: 28.1 mg/kg/injection, schedule: Q07DX002 (ip), vehicle: saline); 90 % of control (dose: 56.2 mg/kg/injection, schedule: Q07DX002 (ip), vehicle: saline); 117 % of control under setting [5]; 160 % of control (dose: 112.5 mg/kg/injection, schedule: Q07DX002 (ip), vehicle: saline). The T/C is 83 % of control (dose: 200.0 mg/kg/injection, schedule: Q07DX002 (ip), vehicle: saline) and 70 % of control (dose: 225.0 mg/kg/injection, schedule: Q07DX002 (ip), vehicle: saline).
As for `Cc1nn(CCO)c(C)c1N=[N+]([O-])c1c(C)nn(CCO)c1C`, the T/C (dose: 6.25 mg/kg/injection, schedule: Q07DX002 (ip), vehicle: Klucel (hydroxypropylcellulose) (HPC)) is 116 % of control; the T/C (dose: 6.25 mg/kg/injection, schedule: Q07DX002 (ip), vehicle: saline with Tween-80) was 102 % of control; the T/C (dose: 12.5 mg/kg/injection, schedule: Q07DX002 (ip), vehicle: Klucel (hydroxypropylcellulose) (HPC)) is 86 % of control; the T/C (dose: 12.5 mg/kg/injection, schedule: Q07DX002 (ip), vehicle: saline with Tween-80) is 98 % of control; the T/C (dose: 25.0 mg/kg/injection, schedule: Q07DX002 (ip), vehicle: Klucel (hydroxypropylcellulose) (HPC)) is 108 % of control and 91 % of control; the T/C under setting [8] was 100 % of control and 104 % of control. For the same compound, the T/C is 86 % of control under setting [6], 24 % of control under setting [9] and 79 % of control under setting [7].
With `C[C@@H]1C(=O)C[C@H]2C(C)(C)CCC[C@]2(C)[C@@]1(O)CCc1ccoc1`, the T/C by setting is: under setting [8], 74 % of control; under setting [9], 84 % of control; under setting [10], 67 % of control.
As for `C[C@]12CCC(=O)C=C1CC[C@@H]1[C@@H]2[C@@H](O)C[C@@]2(C)[C@H]1CC[C@]2(O)C(=O)CO`, the T/C runs as follows: (dose: 40.0 mg/kg/injection, schedule: Q07DX003 (ip), vehicle: Klucel (hydroxypropylcellulose) (HPC)) 73 % of control; (dose: 80.0 mg/kg/injection, schedule: Q07DX003 (ip), vehicle: Klucel (hydroxypropylcellulose) (HPC)) 76 % of control; (dose: 160.0 mg/kg/injection, schedule: Q07DX003 (ip), vehicle: Klucel (hydroxypropylcellulose) (HPC)) 123 % of control and 104 % of control; under setting [9], 63 % of control; (dose: 320.0 mg/kg/injection, schedule: Q07DX003 (ip), vehicle: Klucel (hydroxypropylcellulose) (HPC)) 118 % of control; under setting [10], 74 % of control. Besides, the T/C runs as follows: (dose: 640.0 mg/kg/injection, schedule: Q07DX003 (ip), vehicle: Klucel (hydroxypropylcellulose) (HPC)) 79 % of control and 103 % of control; (dose: 800.0 mg/kg/injection, schedule: Q07DX002 (ip), vehicle: Klucel (hydroxypropylcellulose) (HPC)) 93 % of control; (dose: 800.0 mg/kg/injection, schedule: Q07DX003 (ip), vehicle: Klucel (hydroxypropylcellulose) (HPC)) 57 % of control; (dose: 1200.0 mg/kg/injection, schedule: Q07DX002 (ip), vehicle: Klucel (hydroxypropylcellulose) (HPC)) 70 % of control.
